Assay [1] deals with T1, Mcl-1/Bim interaction, recombinant human Mcl-1 (171-327) (Homo sapiens, UniProt Q07820).
T1 construct: made in house
Put plainly: Cell free Mcl-1: Bim Affinity Assay (Mcl-1 HTRF). In kind it is binding. The procedure, abridged:
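Compounds were mixed with the protein and a biotinylated Bim peptide spanning human residues 51-76. Plates were left overnight, then TR-FRET signal was measured. A four-parameter sigmoidal model applied to duplicate competition data gave IC50.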
(In general: TR-FRET usually uses a lanthanide donor and a delayed reading to cut background.)

Assay [2] has as its system OPM-2 human multiple myeloma cell line. Kind of assay: Cell Viability Assay (OPM-2 10 FBS). In kind it is cell-based. The conditions noted are these: OPM-2 cells, CellTiter-Glo. The gist of the method:
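ATP-based luminescence (CellTiter-Glo) measured after a 16 h compound treatment of OPM-2 cells seeded at 3000 cells/well in 10% FBS medium. IC50 values derived by 4-parameter logistic fitting of serial dilutions.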
A general note: In ATP-based viability assays light output follows the ATP content of the culture.

Where [3] appears, read: TR-FRET, 0.1 nM Mcl-1 (171-327), 0.05 nM biotin-Bim (51-76).
Setting [4] is: cell free Mcl-1:Bim TR-FRET, recombinant human Mcl-1 (171-327).
[5] abbreviates: Homo sapiens, OPM-2, 16 h, 16 h.

By IC50 is commonly meant the concentration needed to halve the response being measured.

T1 sequence (Q07820 171-327): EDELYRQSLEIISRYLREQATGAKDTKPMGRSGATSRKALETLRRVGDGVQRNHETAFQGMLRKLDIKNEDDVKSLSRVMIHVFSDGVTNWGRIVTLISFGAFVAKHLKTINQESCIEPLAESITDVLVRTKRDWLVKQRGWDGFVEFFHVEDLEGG

For the molecule `CC[C@@H](O[C@H]1/C=C/CC[C@@H](C)S(=O)(=O)NC(=O)c2ccc3c(c2)N(C[C@@H]2CC[C@H]21)C[C@@]1(CCCc2cc(Cl)ccc21)CO3)C(=O)N(C)C` (single isomer, unassigned) [Example 421], the results for the IC50 in assay [1] (setting [3]) and in assay [2] (16 h) were 0.686 nM and 674 nM, respectively.

Consider `C[C@@H]1[C@@H](C)C/C=C/[C@H](OCCN2CCOC2=O)[C@@H]2CC[C@H]2CN2C[C@@]3(CCCc4cc(Cl)ccc43)COc3ccc(cc32)C(=O)NS1(=O)=O` [Example 729, (1S,3′R,6′R,7′S,8′E,11′S,12′R)-6-chloro-11′,12′-dimethyl-7′-(2-(2-oxo-1,3-oxazolidin-3-yl)ethoxy)-3,4-dihydro-2H,15′H-spiro[naphthalene-1,22′-[20]oxa[13]thia[1,14]diazatetracyclo[14.7.2.0^3,6.0^19,24]pentacosa [8,16,18,24]tetraen]-15′-one-13′, 13′-dioxide], for which the IC50 turned out to be 0.311 nM in assay [1] (setting [4]) and 118 nM in assay [2] (setting [5]).

Regarding `CO[C@H](C)C[C@@H]1CC/C=C/[C@H](OC)[C@@H]2CC[C@H]2CN2C[C@@]3(CCCc4cc(Cl)ccc43)COc3ccc(cc32)C(=O)NS1(=O)=O` (single isomer, unassigned) [Example 549], the half-inhibitory concentration (IC50) in assay [1] (setting [4]) was 0.554 nM; in assay [2] (16 h), 285 nM.

With `C[C@@H]1[C@@H](C)C/C=C/[C@H](OCCC2CCN(C(=O)OC(C)(C)C)CC2)[C@@H]2CC[C@H]2CN2C[C@@]3(CCCc4cc(Cl)ccc43)COc3ccc(cc32)C(=O)NS1(=O)=O` [Example 737, tert-butyl 4-(2-(((1S,3′R,6′R,7′S,8′E,11′S,12′R)-6-chloro-11′,12′-dimethyl-13′,13′-dioxido-15′-oxo-3,4-dihydro-2H-spiro[naphthalene-1,22′-[20]oxa[13]thia[1,14]diazatetracyclo[14.7.2.0˜3,6˜.0˜19,24˜]pentacosa[8,16,18,24]tetraen]-7′-yl)oxy)ethyl)-1-piperidinecarboxylate], the IC50 in assay [1] (setting [4]) is 15.1 nM; in assay [2] (setting [5]) it was 3390 nM.

With `COCC1COCCN1CCOC1C=CCC(C)C(C)S(=O)(=O)NC(=O)c2ccc3c(c2)N(CC2CCC21)CC1(CCCc2cc(Cl)ccc21)CO3` (mixture of isomers) [Example 530], the IC50 in assay [1] (setting [4]) came to 0.763 nM; in assay [2] (16 h) it was 134 nM.

As for `C[C@@H]1[C@@H](C)C/C=C/[C@H](OCCN(C)c2ccccn2)[C@@H]2CC[C@H]2CN2C[C@@]3(CCCc4cc(Cl)ccc43)COc3ccc(cc32)C(=O)NS1(=O)=O` [Example 13, (1S,3′R,6′R,7′S,8′E,11′S,12′R)-6-chloro-11′,12′-dimethyl-7′-(2-(methyl(2-pyridinyl)amino)ethoxy)-3,4-dihydro-2H,15′H-spiro[naphthalene-1,22′-[20]oxa[13]thia[1,14]diazatetracyclo[14.7.2.0˜3,6˜.0˜19,24˜]pentacosa[8,16,18,24]tetraen]-15′-one 13′,13′-dioxide], the IC50 in assay [1] (setting [3]) was determined as 0.685 nM; in assay [2] (setting [5]) it was 312 nM.

For `C[C@@H]1[C@@H](C)C/C=C/[C@H](OCCNC2COC2)[C@@H]2CC[C@H]2CN2C[C@@]3(CCCc4cc(Cl)ccc43)COc3ccc(cc32)C(=O)NS1(=O)=O` [Example 522, (1S,3′R,6′R,7′S,8′E,11′5,12′R)-6-chloro-11′,12′-dimethyl-7′-(2-(3-oxetanylamino)ethoxy)-3,4-dihydro-2H,15′H-spiro[naphthalene-1,22′-[20]oxa[13]thia[1,14]diazatetracyclo[14.7.2.0^3,6.0^19,24]pentacosa [8,16,18,24]tetraen]-15′-one 13′,13′-dioxide 2,2,2-trifluoroacetic Acid], the half-maximal inhibitory concentration (IC50) amounted to 0.284 nM in assay [1] (setting [4]) and 152 nM in assay [2] (setting [5]).

As to `COCC(C)OC1C=CCCC(C)S(=O)(=O)NC(=O)c2ccc3c(c2)N(CC2CCC21)CC1(CCCc2cc(Cl)ccc21)CO3` (mixture of isomers) [Example 955], the half-inhibitory concentration (IC50) in assay [1] (setting [3]) was 1.23 nM; in assay [2] (16 h incubation) it was 567 nM.

`Cc1cc(CO[C@H]2/C=C/CC[C@@H](C)S(=O)(=O)NC(=O)c3ccc4c(c3)N(C[C@@H]3CC[C@H]32)C[C@@]2(CCCc3cc(Cl)ccc32)CO4)no1` [Example 411, (1S,3′R,6′R,7′S,8′E,12′R)-6-chloro-12′-methyl-7′-((5-methyl-3-isoxazolyl)methoxy)-3,4-dihydro-2H,15′H-spiro[naphthalene-1,22′-[20]oxa[13]thia[1,14]diazatetracyclo[14.7.2.0^3,6.0^19,24]pentacosa [8,16,18,24]tetraen]-15′-one 13′,13′-dioxide]: the results for the IC50 in assay [1] (setting [3]) and in assay [2] (setting [5]) were 1.29 nM and 2410 nM, respectively.

Consider `CS(=O)(=O)CCN1CC/C=C\[C@H](O)[C@@H]2CC[C@H]2CN2C[C@@]3(CCCc4cc(Cl)ccc43)COc3ccc(cc32)C(=O)NS1(=O)=O` [Example 37, (1S,3′R,6′R,7′S,8′Z)-6-chloro-7′-hydroxy-12′-(2-(methylsulfonyl)ethyl)-3,4-dihydro-2H,15′H-spiro[naphthalene-1,22′-[20]oxa[13]thia[1,12,14]triazatetracyclo[14.7.2.0^3,6.0^19,24]pentacosa[8,16,18,24]tetraen]-15′-one 13′,13′-dioxide], for which the half-maximal inhibitory concentration (IC50) in assay [1] (setting [3]) came out at 0.614 nM; in assay [2] (setting [5]) it was 2570 nM.

In the case of `CO[C@H]1/C=C/CCC(CCC(=O)N(C)C)S(=O)(=O)NC(=O)c2ccc3c(c2)N(C[C@@H]2CC[C@H]21)C[C@@]1(CCCc2cc(Cl)ccc21)CO3` (single isomer, unassigned) [Example 622], the half-inhibitory concentration (IC50) in assay [1] (setting [4]) worked out at 0.224 nM; in assay [2] (16 h), 257 nM.

Regarding `C[C@@H]1[C@@H](C)C/C=C/[C@H](OCCN2CCC2=O)[C@@H]2CC[C@H]2CN2C[C@@]3(CCCc4cc(Cl)ccc43)COc3ccc(cc32)C(=O)NS1(=O)=O` [Example 731, (1S,3′R,6′R,7′S,8′E,11′S,12′R)-6-chloro-11′,12′-dimethyl-7′-(2-(2-oxo-1-azetedinyl)ethoxy)-3,4-dihydro-2H,15′H-spiro[naphthalene-1,22′-[20]oxa[13]thia[1,14]diazatetracyclo[14.7.2.0^3,6.0^19,24]pentacosa [8,16,18,24]tetraen]-15′-one-13′, 13′-dioxide], the figures for the half-inhibitory concentration (IC50) in assay [1] (setting [4]) and in assay [2] (setting [5]) were 0.301 nM and 117 nM, respectively.

With `C[C@@H]1CC/C=C/[C@H](OC[C@H](O)CO)[C@@H]2CC[C@H]2CN2C[C@@]3(CCCc4cc(Cl)ccc43)COc3ccc(cc32)C(=O)NS1(=O)=O` (mixture of isomers) [Example 415], the IC50 in assay [1] (setting [3]) turned out to be 0.276 nM; in assay [2] (setting [5]), 2640 nM.

With `C[C@@H]1C/C=C/[C@H](O)[C@@H]2CC[C@H]2CN2C[C@@]3(CCCc4cc(Cl)ccc43)COc3ccc(cc32)C(=O)NS(=O)(=O)N1` [Example 71, (1S,3′R,6′R,7′S,8′E,11R)-6-chloro-7′-hydroxy-11′-methyl-3,4-dihydro-2H,15′H-spiro[naphthalene-1,22′-[20]oxa[13]thia[1,12,14]triazatetracyclo[14.7.2.0^3,6.0^19,24]pentacosa[8,16,18,24]tetraen]-15′-one 13′,13′-dioxide], the IC50 turned out to be 2.62 nM in assay [1] (setting [3]) and 3160 nM in assay [2] (setting [5]).

On to `C[C@@H]1[C@@H](C)C/C=C/[C@H](OCCN2CCS(=O)(=O)CC2)[C@@H]2CC[C@H]2CN2C[C@@]3(CCCc4cc(Cl)ccc43)COc3ccc(cc32)C(=O)NS1(=O)=O` [Example 524, (1S,3′R,6′R,7′S,8′E,11′S,12′R)-6-chloro-7′-(2-(1,1-dioxido-4-thiomorpholinyl)ethoxy)-11′,12′-dimethyl-3,4-dihydro-2H,15′H-spiro[naphthalene-1,22′-[20]oxa[13]thia[1,14]diazatetracyclo[14.7.2.0^3,6.0^19,24]pentacosa [8,16,18,24]tetraen]-15′-one 13′,13′-dioxide], for which the results for the concentration for half-maximal inhibition (IC50) in assay [1] (setting [4]) and in assay [2] (setting [5]) were 0.365 nM and 113 nM, respectively.

With `C[C@@H]1[C@@H](C)C/C=C/[C@H](OCCN2CCN(S(C)(=O)=O)CC2)[C@@H]2CC[C@H]2CN2C[C@@]3(CCCc4cc(Cl)ccc43)COc3ccc(cc32)C(=O)NS1(=O)=O` [Example 734], the concentration for half-maximal inhibition (IC50) in assay [1] (setting [4]) was 1.12 nM; in assay [2] (setting [5]), 134 nM.

Regarding `C[C@H]1C/C=C/[C@H](O)[C@@H]2CC[C@H]2CN2C[C@@]3(CCCc4cc(Cl)ccc43)COc3ccc(cc32)C(=O)NS(=O)(=O)[C@@H]1c1ccccc1` (single isomer, unassigned) [Example 653], the values for the IC50 in assay [1] (setting [4]) and in assay [2] (16 h) were 0.722 nM and 371 nM, respectively.

Regarding `CN(C)S(=O)(=O)CCO[C@@H]1/C=C/CCCS(=O)(=O)NC(=O)c2ccc3c(c2)N(C[C@@H]2CC[C@H]21)C[C@@]1(CCCc2cc(Cl)ccc21)CO3` [Example 219, 2-(((1S,3′R,6′R,7′R,8′E)-6-chloro-13′,13′-dioxido-15′-oxo-3,4-dihydro-2H-spiro[naphthalene-1,22′-[20]oxa[13]thia[1,14]diazatetracyclo[14.7.2.0^3,6.0^19,24]pentacosa [8,16,18,24]tetraen]-7′-yl)oxy)-N,N-dimethylethanesulfonamide], the results for the IC50 in assay [1] (setting [3]) and in assay [2] (setting [5]) were 2.4 nM and 1830 nM, respectively.

Turning to `C=C1CCCC[C@@H](CC)S(=O)(=O)NC(=O)c2ccc3c(c2)N(C[C@@H]2CC[C@@H]12)C[C@@]1(CCCc2cc(Cl)ccc21)CO3` [Example 859, (1S,3′R,6′R,12′R)-6-chloro-12′-ethyl-7′-methylidene-3,4-dihydro-2H,15′H-spiro[naphthalene-1,22′-[20]oxa[13]thia[1,14]diazatetracyclo[14.7.2.0^3,6.0^19,24]pentacosa [16,18,24]trien]-15′-one 13′,13′-dioxide], the half-inhibitory concentration (IC50) amounted to 15.8 nM in assay [1] (setting [4]) and 11500 nM in assay [2] (setting [5]).

Regarding `COC(=O)CCC1(C)CCC=CC(O)C2CCC2CN2CC3(CCCc4cc(Cl)ccc43)COc3ccc(cc32)C(=O)NS1(=O)=O` (stereo not shown) [Example 560], the half-maximal inhibitory concentration (IC50) in assay [1] (setting [4]) is 4.83 nM; in assay [2] (setting [5]), 12200 nM.

(Values after US12091425B2 (AMGEN INC., priority 2016, dated 2024).)
